Results taken from ChEMBL document CHEMBL5154916, “Multiparameter Optimization of Naphthyridine Derivatives as Selective α5-GABAA Receptor Negative Allosteric Modulators” (J Med Chem, 2022).

Columns and labels:
[1] = target: T1, GABA-A receptor; alpha-5/beta-3/gamma-2 (Homo sapiens, UniProt P18507+P28472+P31644); test: Displacement of [3H]Ro151788 from human recombinant alpha5beta3gamma2 GABAA receptor stably expressed in HEK293 cell membrane assessed as inhibition constant by radioligand binding assay; type: cell membranes
T1 sequence (P18507 whole entry): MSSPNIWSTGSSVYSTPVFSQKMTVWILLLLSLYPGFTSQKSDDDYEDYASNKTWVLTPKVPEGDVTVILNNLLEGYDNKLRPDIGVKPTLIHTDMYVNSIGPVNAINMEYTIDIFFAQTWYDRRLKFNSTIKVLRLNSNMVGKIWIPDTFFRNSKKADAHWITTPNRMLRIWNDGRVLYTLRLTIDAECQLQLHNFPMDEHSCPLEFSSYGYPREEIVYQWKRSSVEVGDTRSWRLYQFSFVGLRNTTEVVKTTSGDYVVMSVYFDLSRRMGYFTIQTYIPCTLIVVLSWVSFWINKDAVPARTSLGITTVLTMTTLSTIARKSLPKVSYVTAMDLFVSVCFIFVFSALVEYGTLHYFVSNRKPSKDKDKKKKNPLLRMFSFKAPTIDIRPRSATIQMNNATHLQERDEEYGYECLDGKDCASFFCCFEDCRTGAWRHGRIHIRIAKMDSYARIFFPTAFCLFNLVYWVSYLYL
T1 sequence (P28472 whole entry): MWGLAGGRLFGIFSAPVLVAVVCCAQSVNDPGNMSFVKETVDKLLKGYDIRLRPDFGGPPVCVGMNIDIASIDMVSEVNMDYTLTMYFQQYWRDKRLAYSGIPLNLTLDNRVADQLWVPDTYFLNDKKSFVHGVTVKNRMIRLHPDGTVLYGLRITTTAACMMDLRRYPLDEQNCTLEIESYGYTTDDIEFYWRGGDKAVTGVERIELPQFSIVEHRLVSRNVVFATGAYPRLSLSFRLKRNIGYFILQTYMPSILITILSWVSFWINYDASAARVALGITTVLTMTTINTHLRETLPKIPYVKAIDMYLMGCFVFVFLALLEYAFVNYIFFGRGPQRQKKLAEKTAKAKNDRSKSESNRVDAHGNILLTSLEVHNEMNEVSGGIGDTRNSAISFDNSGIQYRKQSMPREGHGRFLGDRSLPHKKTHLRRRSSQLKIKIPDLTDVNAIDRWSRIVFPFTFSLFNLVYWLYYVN
T1 sequence (P31644 whole entry): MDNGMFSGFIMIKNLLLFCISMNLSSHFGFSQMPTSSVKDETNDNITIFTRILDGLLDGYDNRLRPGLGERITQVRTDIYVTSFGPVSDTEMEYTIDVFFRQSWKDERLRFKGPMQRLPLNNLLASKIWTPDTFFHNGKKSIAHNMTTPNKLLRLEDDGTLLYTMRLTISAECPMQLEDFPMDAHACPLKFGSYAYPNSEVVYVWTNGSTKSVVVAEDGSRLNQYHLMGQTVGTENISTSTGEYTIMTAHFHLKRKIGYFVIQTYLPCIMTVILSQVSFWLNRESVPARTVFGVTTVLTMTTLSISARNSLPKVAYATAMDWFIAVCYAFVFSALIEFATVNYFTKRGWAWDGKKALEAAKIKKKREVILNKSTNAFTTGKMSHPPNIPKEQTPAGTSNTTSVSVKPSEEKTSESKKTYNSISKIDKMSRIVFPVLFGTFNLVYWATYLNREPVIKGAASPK

[2] = target: T2, GABA-A receptor; alpha-5/beta-3/gamma-2 (Homo sapiens) (UniProt P18507+P28472+P31644); test: Negative allosteric modulation activity at human recombinant alpha5beta3gamma2 GABAA receptor stably expressed in HEK293 cells assessed as modulation at alpha5 subunit at 10 uM by Patch clamp method; type: cell-based; settings: filed as negative allosteric modulator
[3] = target: T2, GABA-A receptor; alpha-5/beta-3/gamma-2 (Homo sapiens); test: Negative allosteric modulation activity at human recombinant alpha5beta3gamma2 GABAA receptor stably expressed in HEK293 cells assessed as modulation at alpha5 subunit at 1 uM by Patch clamp method; type: cell-based; settings: filed as negative allosteric modulator
[4] = target: GABA-A receptor; alpha-1/beta-3/gamma-2 (Homo sapiens) (UniProt P14867+P18507+P28472); test: Negative allosteric modulation activity at human recombinant alpha1beta3gamma2 GABAA receptor stably expressed in HEK293 cells assessed as modulation at alpha1 subunit at 10 uM by Patch clamp method; type: cell-based; settings: filed as negative allosteric modulator
[5] = Metabolic stability in human liver microsomes assessed as intrinsic clearance at 2.5 uM; type: ADME, Microsome; settings: read-out: CLH
[6] = Metabolic stability in Wistar rat liver microsomes assessed as intrinsic clearance at 2.5 uM; type: ADME, Microsome; settings: read-out: CLH
[7] = target: Voltage-gated inwardly rectifying potassium channel KCNH2 (Homo sapiens, UniProt Q12809); test: Inhibition of hERG expressed in CHO cells stably at -80 mV holding potential by automated patch clamp method; type: toxicity, cell-based
Chain of Voltage-gated inwardly rectifying potassium channel KCNH2 (Q12809 whole entry): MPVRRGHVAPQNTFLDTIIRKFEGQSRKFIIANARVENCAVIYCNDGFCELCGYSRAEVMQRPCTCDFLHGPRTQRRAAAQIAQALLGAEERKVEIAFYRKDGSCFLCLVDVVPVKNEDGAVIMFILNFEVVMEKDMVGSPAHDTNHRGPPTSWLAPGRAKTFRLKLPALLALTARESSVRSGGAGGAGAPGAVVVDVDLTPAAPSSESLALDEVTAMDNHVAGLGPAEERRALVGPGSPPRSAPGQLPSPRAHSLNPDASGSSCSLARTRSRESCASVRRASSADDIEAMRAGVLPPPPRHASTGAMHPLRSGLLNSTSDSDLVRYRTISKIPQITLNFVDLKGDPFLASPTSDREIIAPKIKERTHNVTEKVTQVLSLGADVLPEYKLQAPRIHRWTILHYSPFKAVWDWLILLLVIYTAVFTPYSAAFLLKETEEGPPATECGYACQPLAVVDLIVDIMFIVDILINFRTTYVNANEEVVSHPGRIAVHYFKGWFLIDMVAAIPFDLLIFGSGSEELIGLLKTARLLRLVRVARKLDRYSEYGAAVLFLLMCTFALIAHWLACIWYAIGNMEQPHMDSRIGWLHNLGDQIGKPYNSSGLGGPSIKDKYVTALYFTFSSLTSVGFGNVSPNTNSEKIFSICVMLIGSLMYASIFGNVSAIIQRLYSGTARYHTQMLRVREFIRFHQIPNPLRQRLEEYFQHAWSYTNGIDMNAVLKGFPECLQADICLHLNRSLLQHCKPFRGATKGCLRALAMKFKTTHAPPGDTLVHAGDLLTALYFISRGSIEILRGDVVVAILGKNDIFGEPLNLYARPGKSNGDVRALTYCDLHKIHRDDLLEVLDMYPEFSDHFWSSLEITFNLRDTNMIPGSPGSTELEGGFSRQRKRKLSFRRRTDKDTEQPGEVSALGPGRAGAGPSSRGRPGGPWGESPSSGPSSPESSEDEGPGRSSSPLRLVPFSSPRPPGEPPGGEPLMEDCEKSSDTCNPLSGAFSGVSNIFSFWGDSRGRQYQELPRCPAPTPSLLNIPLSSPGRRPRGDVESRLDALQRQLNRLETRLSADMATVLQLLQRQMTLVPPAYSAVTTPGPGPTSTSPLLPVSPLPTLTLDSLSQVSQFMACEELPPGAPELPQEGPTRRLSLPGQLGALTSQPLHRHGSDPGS

[8] = Passive permeability in human Caco-2 cells assessed as permeability damage ratio at 10 uM by HPLC-UV analysis; type: ADME, cell-based; settings: caco-2, 10 µM
[9] = Apparent permeability in human Caco-2 cells at 10 uM by HPLC-UV analysis; type: ADME, cell-based

SMILES | Ki [1] [nM] | Activity [2] [%] | Activity [3] [%] | Activity [4] [%] | microsomal CLint at 2.5 µM [5] [µL/min/mg] | microsomal CLint at 2.5 µM [6] [µL/min/mg] | IC50 [7] [nM] | Ratio [8] | Papp at 10 µM [9] [×10⁻⁶ cm/s]
Cc1onc(-c2ccc(F)cc2)c1COc1ccc2c(c1)CCC(=O)N2C | 13 | -10 | -6 | – | – | – | – | – | –
Cc1onc(-c2ccc(F)cc2)c1COc1ccc2c(n1)CCN(C)C2=O | 2.8 | -31 | -21 | -8 | 28 | 404 | 3800 | – | –
Cc1onc(-c2ccc(F)cc2)c1COc1ccc2c(n1)CCN(C(=O)C1CCCO1)C2 (stereo not drawn) | 9.9 | – | – | – | 42 | 210 | – | – | –
Cc1nnn(-c2ccc(F)cc2)c1COc1ccc2c(n1)CCN(C(=O)NC1CCOC1)C2 (stereo not drawn) | 28 | -34 | -32 | – | 10 | 39 | 21000 | 4.7 | 18.7
Cc1onc(-c2ccc(F)cc2)c1COc1ccc2c(n1)CCNC2=O | 4.1 | -42 | -25 | 2 | 14 | 227 | 10000 | – | –
Cc1onc(-c2ccc(F)cc2)c1COc1ccc2c(n1)CCN(Cc1ccco1)C2=O | 21 | -31 | -14 | – | 85 | 365 | 3500 | – | –
Cc1onc(-c2ccc(F)cc2)c1COc1ccc2c(n1)CCN(C(=O)C1CCOCC1)C2 | 9.2 | -37 | -20 | -9 | 10 | 93 | 5700 | – | –
Cc1nnn(-c2ccc(F)cc2)c1COc1ccc2c(n1)CCN(C(=O)C1CC(=O)N(C)C1)C2 (stereo not drawn) | 35 | -47 | -32 | – | 1 | 4 | 30000 | 8.9 | 7.54
Cc1onc(-c2ccc(F)cc2)c1COc1ccc2c(n1)CCN(CC1CCCS1(=O)=O)C2=O (stereo not drawn) | 23 | -36 | -23 | -12 | – | – | 1800 | – | –
Cc1onc(-c2ccc(F)cc2)c1COc1ccc2c(n1)CCN(C(=O)C1CC1)C2 | 8.3 | -34 | -4 | – | 71 | 388 | 5800 | – | –
Cc1onc(-c2ccc(F)cc2)c1COc1cc2c(cn1)C(=O)NCC2 | 0.49 | 6 | 15 | – | – | – | – | – | –
Cc1onc(-c2ccc(F)cc2)c1COc1ccc2c(n1)CCN(C(=O)C1CCS(=O)(=O)CC1)C2 | 3.6 | -38 | -22 | -10 | 10 | 36 | 2900 | – | –
Cc1onc(-c2ccc(F)cc2)c1COc1ccc(C(=O)N2CCS(=O)(=O)CC2)cn1 [BASMISANIL] | 4.4 | -25 | -24 | -2 | 7.5 | 22 | – | – | –
Cc1onc(-c2ccc(F)cc2)c1COc1ccc2c(c1)CCNC2=O | 10 | -7 | -6 | – | 10 | 108 | – | – | –
Cc1onc(-c2ccc(F)cc2)c1COc1ccc2c(n1)CCN(CC1CCCO1)C2=O (stereo not drawn) | 23 | -28 | -29 | -6 | – | – | 2900 | – | –
CC(=O)N1CCc2nc(OCc3c(-c4ccc(F)cc4)noc3C)ccc2C1 | 1.9 | -16 | -19 | – | 74 | 301 | 5300 | – | –
Cc1onc(-c2ccc(F)cc2)c1COc1ccc2c(n1)CCN(C(C)C)C2=O | 13 | -25 | -9 | -2 | 16 | 214 | 4400 | – | –
Cc1onc(-c2ccc(F)cc2)c1COc1ccc2c(n1)CCN(C1CCOC1)C2=O (stereo not drawn) | 8 | -39 | -25 | -10 | 29 | 139 | 3200 | – | –
Cc1onc(-c2ccc(F)cc2)c1COc1ccc2c(n1)CCN(C(=O)N(C)C)C2 | 2.7 | -42 | -22 | – | 49 | 356 | 8300 | – | –
Cc1onc(-c2ccc(F)cc2)c1COc1ccc2c(n1)CCN(C(=O)N1CCCC1)C2 | 7.3 | -36 | -12 | – | 45 | 279 | 10000 | – | –
Cc1onc(-c2ccc(F)cc2)c1COc1ccc2c(n1)CCN(C(=O)C1CCC1)C2 | 13 | -26 | -7 | – | 57 | 400 | > 10000 | – | –
Cc1onc(-c2ccc(F)cc2)c1COc1ccc2c(n1)CCN(Cc1ccno1)C2=O | 9 | -35 | -29 | -10 | – | – | 2500 | – | –
CCC(=O)N1CCc2nc(OCc3c(C)nnn3-c3ccc(F)cc3)ccc2C1 | 46 | – | – | – | 48 | 92 | – | – | –
Cc1onc(-c2ccc(F)cc2)c1COc1ccc2c(n1)CCN(C(=O)N1CCCCC1)C2 | 49 | – | – | – | 107 | 359 | 10000 | – | –
Cc1onc(-c2ccc(F)cc2)c1COc1ccc2c(n1)CCN(C(=O)C1CCOC1)C2 (stereo not drawn) | 7 | -40 | -24 | -14 | 24 | 158 | 3600 | – | –
Cc1onc(-c2ccc(F)cc2)c1COc1ccc2c(n1)CCN(C(=O)c1ccno1)C2 | 4.6 | -32 | -13 | – | 67 | 245 | 6400 | – | –
Cc1onc(-c2ccc(F)cc2)c1COc1ccc2c(c1)OCC(=O)N2C | 14 | – | -16 | – | 33 | 381 | – | – | –
Cc1onc(-c2ccc(F)cc2)c1COc1ccc2c(n1)CCN(C(=O)CCS(C)(=O)=O)C2 | 30 | -35 | -16 | – | 9 | 44 | 4200 | – | –
Cc1onc(-c2ccc(F)cc2)c1COc1ccc2c(n1)CCN(C(=O)N1CCOCC1)C2 | 4.6 | -39 | -15 | – | 32 | 142 | 9100 | – | –
Cc1nnn(-c2ccc(F)cc2)c1COc1ccc2c(n1)CCN(C(=O)C1CC1)C2 | 49 | – | – | – | 53 | 99 | – | – | –
